The test addresses T1, thioredoxin reductase (TrxR) (Rattus norvegicus, UniProt O89049).
T1 construct: gene Txnrd1; commercially available rat liver TrxR
T1 sequence (O89049 1-499): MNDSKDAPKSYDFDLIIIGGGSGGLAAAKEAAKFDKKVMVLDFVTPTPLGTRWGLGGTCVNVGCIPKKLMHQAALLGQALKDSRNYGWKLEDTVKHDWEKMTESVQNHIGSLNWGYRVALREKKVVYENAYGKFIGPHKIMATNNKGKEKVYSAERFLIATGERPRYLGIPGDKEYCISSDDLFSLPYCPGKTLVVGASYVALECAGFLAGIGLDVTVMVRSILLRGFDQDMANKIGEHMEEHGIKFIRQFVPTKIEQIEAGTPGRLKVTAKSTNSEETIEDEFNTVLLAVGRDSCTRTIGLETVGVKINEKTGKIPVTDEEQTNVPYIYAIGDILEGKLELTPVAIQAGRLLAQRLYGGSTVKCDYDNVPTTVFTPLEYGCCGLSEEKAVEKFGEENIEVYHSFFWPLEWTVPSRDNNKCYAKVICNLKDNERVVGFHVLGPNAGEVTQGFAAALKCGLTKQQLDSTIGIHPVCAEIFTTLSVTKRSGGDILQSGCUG
Kind of test: DTNB reduction assay with NADPH and rat liver TrxR, […] min exposure, absorbance at […] nm. It counts as biochemical.

Turning to `Cc1ccc(C(C)C)cc1.[Cl][Ru-]1[O]N2C=Cc3ccccc3C2=[S+]1` [1a, organoruthenium(II) chlorido complex 1a], inhibition was half-maximal at 4.1 ± 0.16 µM (IC50).

The values above are taken from paper PMC8160969, “Organoruthenium Complexes with Benzo-Fused Pyrithiones Overcome Platinum Resistance in Ovarian Cancer Cells” (Cancers, 2021).
